{
  "source": "paper PMC3040260",
  "about": "(Biochemistry, 2011)",
  "key": {"[1]": {"biological_target": "T1, PaMTIP (Pseudomonas aeruginosa, UniProt Q9HZK1)", "T1 sequence (Q9HZK1 whole entry)": "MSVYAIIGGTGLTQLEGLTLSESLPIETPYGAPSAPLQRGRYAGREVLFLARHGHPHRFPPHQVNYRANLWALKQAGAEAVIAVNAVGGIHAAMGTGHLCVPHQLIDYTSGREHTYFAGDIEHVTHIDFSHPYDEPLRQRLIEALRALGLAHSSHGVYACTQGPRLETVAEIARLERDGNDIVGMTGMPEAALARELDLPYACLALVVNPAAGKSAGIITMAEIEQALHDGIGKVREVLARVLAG", "experiment": "PaMTIP inhibition assay", "type": "biochemical"}, "[2]": {"biological_target": "T1, PaMTIP", "type": "biochemical"}, "[3]": {"settings": "initial phase, 1 nM PaMTIP, 2 mM MTI, 25 °C, pH 7.4"}, "[4]": {"settings": "second binding phase after slow-onset, 1 nM PaMTIP, 2 mM MTI, 25 °C, pH 7.4"}, "[5]": {"settings": "phosphorolysis, 25 °C, 100 mM Hepes pH 7.4, 100 mM phosphate"}},
  "note": "Values joined by “and” are separate entries in the source; they are usually repeats but may differ in a detail not shown here. Identical values can stand only once.",
  "data": [
    {"molecule": "O=c1[nH]cnc2c([C@@H]3N[C@H](CSc4ccccc4)[C@@H](O)[C@H]3O)c[nH]c12", "note": "[PhT-ImmH, 5'-phenylthio-ImmH]", "values": [
      {"measurement": "slow-onset inhibition", "setting": "[1]; PaMTIP", "value": "induces slow-onset inhibition"},
      {"measurement": "Ki", "setting": "[1]; [3]", "value": "0.66 ± 0.09", "unit": "nM"},
      {"measurement": "Ki", "setting": "[1]; [4]", "value": "0.035 ± 0.003", "unit": "nM"}
    ]},
    {"molecule": "CSC[C@H]1CN(Cc2c[nH]c3c(=O)[nH]cnc23)C[C@@H]1O", "note": "[MT-DADMe-ImmH, 5'-methylthio-DADMe-ImmH]", "values": [
      {"measurement": "Ki", "setting": "[1]; [3]", "value": "0.8 ± 0.1", "unit": "nM"},
      {"measurement": "Ki", "setting": "[1]; [4]", "value": "0.34 ± 0.02", "unit": "nM"}
    ]},
    {"molecule": "CSC[C@H]1N[C@@H](c2c[nH]c3c(=O)[nH]cnc23)[C@H](O)[C@@H]1O", "note": "[MT-ImmH, 5'-methylthio-ImmH]", "values": [
      {"measurement": "fold tighter binding than MT-DADMe-ImmH (Ki*)", "setting": "[1]; PaMTIP", "value": 4, "unit": "fold"},
      {"measurement": "Ki", "setting": "[1]; [3]", "value": "0.84 ± 0.05", "unit": "nM"},
      {"measurement": "Ki", "setting": "[1]; [4]", "value": "0.076 ± 0.005", "unit": "nM"}
    ]},
    {"molecule": "O=c1[nH]cnc2c1ncn2[C@@H]1O[C@H](CO)[C@@H](O)[C@H]1O", "note": "[inosine]", "values": [
      {"measurement": "kcat", "setting": "[2]; [5]", "value": "0.57 s⁻¹ and 0.57 ± 0.04 s⁻¹"}
    ]},
    {"molecule": "Nc1ncnc2c1ncn2[C@@H]1O[C@H](CO)[C@@H](O)[C@H]1O", "note": "[adenosine]", "values": [
      {"measurement": "kcat", "setting": "[2]; [5]", "value": "0.0549 s⁻¹ and 0.0549 ± 0.0005 s⁻¹"},
      {"measurement": "fold decrease of kcat/Km in comparison with MTI", "setting": "[2]; relative to MTI", "value": 750, "unit": "fold"}
    ]},
    {"molecule": "5'-methylthioinosine [MTI]", "values": [
      {"measurement": "slow hydrolysis rate", "setting": "[2]; hydrolysis to hypoxanthine and 5-methylthioribose", "value": "3.8e-05", "unit": "s⁻¹"},
      {"measurement": "Km", "setting": "[2]; [5]", "value": "2.6 ± 0.4", "unit": "µM"},
      {"measurement": "kcat", "setting": "[2]; [5]", "value": "4.8 s⁻¹ and 4.8 ± 0.2 s⁻¹"}
    ]},
    {"molecule": "5'-methylthioadenosine [MTA]", "values": [
      {"measurement": "kcat", "setting": "[2]; [5]", "value": "< 10^−4 s^−1"},
      {"measurement": "Ki", "setting": "[1]; competitive inhibitor of MTI, 200 µM MTI", "value": "70000 ± 20000", "unit": "nM"}
    ]}
  ]
}
